Laboratory results from patent EP4653444A1, “FUSED TRICYCLIC COMPOUND AS KINASE INHIBITOR” (Hangzhou Innogate Pharma Co., Ltd., priority 2023, dated 2024).
pIC50: −log10 of the molar value. Read-outs that look alike come from different tables or passages of the source.

What was measured:
[1] = target: T1, AXL (Homo sapiens, UniProt P30530); assay: AXL kinase activity inhibition assay (Mobility shift assay); assay type: biochemical
T1 sequence (P30530 26-894): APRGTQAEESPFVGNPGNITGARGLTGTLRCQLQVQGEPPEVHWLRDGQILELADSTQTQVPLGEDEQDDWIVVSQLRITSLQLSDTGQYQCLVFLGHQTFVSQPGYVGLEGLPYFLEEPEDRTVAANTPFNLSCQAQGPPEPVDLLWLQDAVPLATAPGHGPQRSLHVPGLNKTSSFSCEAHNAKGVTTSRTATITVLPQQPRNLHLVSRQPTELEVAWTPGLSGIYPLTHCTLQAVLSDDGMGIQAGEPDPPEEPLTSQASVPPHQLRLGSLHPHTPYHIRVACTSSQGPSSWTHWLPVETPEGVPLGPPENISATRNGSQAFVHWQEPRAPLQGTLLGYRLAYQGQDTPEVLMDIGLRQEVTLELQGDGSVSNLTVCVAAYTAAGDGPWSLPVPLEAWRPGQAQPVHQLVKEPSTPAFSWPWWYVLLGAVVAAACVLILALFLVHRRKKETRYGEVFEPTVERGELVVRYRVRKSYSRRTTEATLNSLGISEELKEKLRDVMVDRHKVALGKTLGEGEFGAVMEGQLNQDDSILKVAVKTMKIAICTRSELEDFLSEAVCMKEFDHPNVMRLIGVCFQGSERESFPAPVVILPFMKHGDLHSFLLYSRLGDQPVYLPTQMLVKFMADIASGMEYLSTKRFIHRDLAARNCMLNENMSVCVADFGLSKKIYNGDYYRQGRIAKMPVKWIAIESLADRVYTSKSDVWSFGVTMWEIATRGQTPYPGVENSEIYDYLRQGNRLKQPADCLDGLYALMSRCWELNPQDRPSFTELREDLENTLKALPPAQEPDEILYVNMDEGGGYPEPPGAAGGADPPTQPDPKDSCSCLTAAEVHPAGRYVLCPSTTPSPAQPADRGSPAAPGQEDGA
Description: Testing compound inhibitory activity against FLT3 and AXL kinases using Mobility shift assay. Compounds were dissolved in 100% DMSO to prepare 10 mM stock solutions. Prepare 1× Kinase Buffer. Test compounds were serially diluted in 5-fold gradients, and 250 nL of 100× final concentration compounds were transferred to destination plate 3573 using an Echo 550 liquid handler. A 2.5× final concentration kinase solution was prepared in 1× Kinase Buffer. Then, 10 µL of the 2.5× kinase solution was added to both compound wells and positive control wells, while 10 µL of 1× Kinase Buffer was added to negative control wells. The plate was centrifuged at 1000 rpm for 30 seconds, mixed by orbital shaking, and incubated at room temperature for 10 minutes. A 5/3× final concentration mixture of ATP and Kinase Substrate 25 was prepared in 1× Kinase Buffer. The reaction was initiated by adding 15 µL of the 5/3× ATP/substrate mixture. […] Conversion rates were measured using a Caliper EZ Reader. %Inhibition = (Conversion%_max - Conversion%_sample)/(Conversion%_max - Conversion%_min) × 100. Where: Conversion%_sample: Conversion rate reading of test samples; Conversion%_min: Mean value of negative control wells (representing conversion rate without enzyme activity); Conversion%_max: Mean value of positive control wells (representing conversion rate without compound inhibition). […]

[2] = Pharmacokinetic study in rats; settings: rat, plasma, po, 3 mg/kg

SMILES | pIC50 ([1]; Table 3, read-out: AXL (IC50)) | AUC(0-t) at 24 h [2] [ng·h/mL] | Cmax [2] [ng/mL] | Tmax [2] [h] | half-life [2] [h] | pIC50 [1]
COc1cc2c(cc1Nc1ncc(Cl)c(Nc3ccccc3S(=O)(=O)C(C)C)n1)OC[C@@H]1CN(C3CCOCC3)CCN21 [Compound C1S] | > 7.52 | 136 | 61.8 | 0.83 | 1.78 | 
COc1cc2c(cc1Nc1ncc(Cl)c(Nc3ccccc3S(=O)(=O)C(C)C)n1)OC[C@@H]1CN(C3CCN(C)CC3)CCN21 [Compound C2S] |  | 1970 | 135 | 10 | 9.2 | > 7.52
CNC(=O)c1ccccc1Nc1cc(Nc2cc3c(cc2OC)N2CCN(C4CCN(C)CC4)C[C@H]2CO3)ncc1C(F)(F)F [Compound D2S] |  | 1470 | 134 | 3.33 | 5.97 | 
CNC(=O)c1ccccc1Nc1cc(Nc2cc3c(cc2OC)N2CCN(C4CN(C)C4)C[C@H]2CO3)ncc1C(F)(F)F [Compound D4S] |  | 1660 | 241 | 5.33 | 3.03 | 
